Laboratory results reported in ChEMBL document CHEMBL4665707, “Lung Protection by Cathepsin C Inhibition: A New Hope for COVID-19 and ARDS?” (J Med Chem, 2020).

Assays:
[1] = Reduction in whole blood neutrophil elastase activity in healthy human subjects at 10 mg dosed daily via oral route; assay type: functional
[2] = Reduction in whole blood neutrophil elastase activity in healthy human subjects at 25 mg dosed daily via oral route; assay type: functional
[3] = Reduction in whole blood neutrophil elastase activity in healthy human subjects at 40 mg dosed daily via oral route; assay type: functional
Dipeptidyl peptidase 1 = Dipeptidyl peptidase 1 (Homo sapiens, UniProt P53634); test: Inhibition of human cathepsin C
Sequence of Dipeptidyl peptidase 1 (P53634 25-134 limits assumed): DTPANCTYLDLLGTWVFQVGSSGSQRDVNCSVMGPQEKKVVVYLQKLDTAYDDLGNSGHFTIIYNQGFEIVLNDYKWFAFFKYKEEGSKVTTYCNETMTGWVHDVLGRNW
Sequence of Dipeptidyl peptidase 1 (P53634 231-394 limits assumed): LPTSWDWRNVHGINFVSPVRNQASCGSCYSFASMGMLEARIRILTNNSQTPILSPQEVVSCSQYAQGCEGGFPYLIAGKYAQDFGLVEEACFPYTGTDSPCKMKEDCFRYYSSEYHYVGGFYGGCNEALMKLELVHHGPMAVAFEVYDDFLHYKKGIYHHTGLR
Sequence of Dipeptidyl peptidase 1 (P53634 395-463 limits assumed): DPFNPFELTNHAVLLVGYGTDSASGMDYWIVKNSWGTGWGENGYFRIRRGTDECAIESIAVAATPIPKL

SMILES: Cn1c(=O)oc2ccc(-c3ccc(C[C@@H](C#N)NC(=O)[C@@H]4CNCCCO4)cc3)cc21 [BRENSOCATIB]
- inhibition (INH) [1]: 30%
- inhibition (INH) [2]: 49%
- inhibition (INH) [3]: 59%

SMILES: CC[C@H](N)C(=O)N[C@]1(C#N)C[C@@H]1c1ccc(-c2ccc(S(=O)(=O)N3CCN(C)CC3)cc2)cc1
- IC50 (Dipeptidyl peptidase 1): 15 nM
